From patent publication US11999742B2, “Substituted pyrrolo[1,2-b]pyridazines as anthelmintics” (BOEHRINGER INGELHEIM VETMEDICA GMBH, priority 2021, dated 2024)

Tests used:
[1] = system: Microfilaria of Dirofilaria immitis; assay: Motility of Dirofilaria immitis microfilariae in microtiter plate, 3 days, dose response; assay type: cell-based; conditions: 72 h, read-out: EC50, motility of D. immitis microfilaria, three days at 37° C., 5% CO2, vs DMSO control
[2] = system: L4 stage larvae of Dirofilaria immitis; assay: Motility of L4 stage Dirofilaria immitis larvae, 3 days, dose response; assay type: cell-based; conditions: 72 h, read-out: EC50, motility of L4 stage D. immitis, three days at 37° C., 5% CO2, vs DMSO control
[3] = system: Haemonchus contortus L1 larvae; assay: Haemonchus contortus larval development L1 to L3, 4 days, dose response; conditions: 96 h, read-out: EC50, development of H. contortus larvae from L1 to L3
From the text: Biological Example 2: Screening Method to Test Activity of Compounds Against Haemonchus contortus

Compound | EC50 [1] [nM] | EC50 [2] [nM] | EC50 [3] [nM]
Cc1cc2c(C(C)(C)C)c(C(=O)N[C@H]3CCc4cnccc43)cnn2c1-c1cc(F)cc(Cl)c1Cl [Compound A556] | 1000 to 10000 | 1000 to 10000 | –
Cc1cc2c(C(C)C)c(NC(=O)[C@H]3CCOc4ccccc43)cnn2c1-c1cc(Cl)cc(Cl)c1 [Compound A462] | 10 to 100 | 10 to 100 | 100 to 1000
Cc1cc2c(C(C)(C)C)c(C(=O)N(C)[C@H]3CCOc4ccccc43)cnn2c1-c1cc(F)cc(Cl)c1Cl [Compound A543, 4-tert-butyl-7-(2,3-dichloro-5-fluorophenyl)-N-[(4S)-3,4-dihydro-2H-1-benzopyran-4-yl]-N,6-dimethylpyrrolo[1,2-b]pyridazine-3-carboxamide] | 1000 to 10000 | 1000 to 10000 | –
Cc1cc2c(C(C)(C)C)c(C(=O)N[C@H]3CC4(CCCC4)Oc4ccccc43)cnn2c1-c1cc(F)cc(Cl)c1Cl [Compound A548] | 1000 to 10000 | 1000 to 10000 | –
Cc1cc2c(N(C)C)c(C(=O)N[C@H]3CCOc4ccccc43)cnn2c1-c1cc(F)cc(Cl)c1Cl [Compound A493, 7-(2,3-dichloro-5-fluorophenyl)-N-[(4S)-3,4-dihydro-2H-1-benzopyran-4-yl]-4-(dimethylamino)-6-methylpyrrolo[1,2-b]pyridazine-3-carboxamide] | < 10 | < 10 | < 10
Cc1cc2c(C(C)(C)C)c(C(=O)N[C@H]3CCCc4cc(F)ccc43)cnn2c1-c1cc(F)cc(Cl)c1Cl [Compound A538] | 1000 to 10000 | 1000 to 10000 | –
Cc1cc2c(C(C)(C)C)c(C(=O)N[C@H]3CCCc4cnn(C(C)C)c43)cnn2c1-c1cc(F)cc(Cl)c1Cl [Compound A546] | – | 1000 to 10000 | –
Cc1cc2c(C(C)C)c(C(=O)NN3CCOc4ccccc43)cnn2c1-c1cc(F)cc(Cl)c1Cl [Compound A498] | < 10 | < 10 | 10 to 100
O=C(N[C@H]1CCOc2ccccc21)c1cnn2c(-c3cc(F)cc(Cl)c3Cl)c(Cl)cc2c1N1CCC1 [Compound A503] | < 10 | < 10 | 10 to 100
Cc1cc2c(C(C)C)c(C(=O)N[C@H]3CCOc4ccccc43)cnn2c1-c1cc(F)cc(Cl)c1Cl [Compound A489] | < 10 | < 10 | –
Cc1cc2c(N(C)C)c(C(=O)N[C@H]3CCOc4ccccc43)cnn2c1-c1cc(Cl)cc(Cl)c1Cl [Compound A568] | < 10 | – | < 10
CC(C)c1c(C(=O)N[C@H]2CCOc3ccccc32)cnn2c(-c3cc(Cl)cc(Cl)c3)c(Cl)cc12 [Compound A463] | < 10 | 10 to 100 | 10 to 100
Cc1cc2c(C(C)(C)C)c(C(=O)N[C@H]3CCOc4ccccc43)cnn2c1-c1cc(F)cc(F)c1F [Compound A471] | < 10 | < 10 | < 10
CC(C)(C)c1c(C(=O)N[C@H]2CCOc3ccccc32)cnn2c(-c3cc(F)cc(Cl)c3Cl)c(Cl)cc12 [Compound A502, 4-tert-butyl-6-chloro-7-(2,3-dichloro-5-fluorophenyl)-N-[(4S)-3,4-dihydro-2H-1-benzopyran-4-yl]pyrrolo[1,2-b]pyridazine-3-carboxamide] | < 10 | < 10 | < 10
CC(C)c1c(C(=O)N[C@H]2CCOc3ccccc32)cnn2c(-c3cc(Cl)cc(Cl)c3)c(F)cc12 [Compound A466] | 10 to 100 | 10 to 100 | 100 to 1000
Cc1cc2c(N3CC(F)(F)C3)c(C(=O)N[C@H]3CCOc4ccccc43)cnn2c1-c1cc(Cl)cc(Cl)c1Cl [Compound A505] | < 10 | < 10 | 10 to 100
Cc1cc2c(C(C)(C)C)c(C(=O)N[C@H]3CCCc4ccccc43)cnn2c1-c1cc(F)cc(Cl)c1Cl [Compound A557] | < 10 | < 10 | < 10
CC(C)c1c(C(=O)N[C@H]2CCOc3ccccc32)cnn2c(-c3cc(Cl)cc(Cl)c3)cc(Cl)c12 [Compound A467] | 100 to 1000 | 100 to 1000 | –
CC(C)(C)c1c(C(=O)N[C@H]2CCOc3ccccc32)cnn2c(-c3cc(Cl)cc(Cl)c3Cl)c(Cl)cc12 [Compound A522] | < 10 | < 10 | < 10
CC(C)(C)c1c(C(=O)N[C@H]2CCOc3ccccc32)cnn2c(-c3c(Cl)cc(F)cc3Cl)c(Cl)cc12 [Compound A485] | < 10 | < 10 | < 10
CC(C)(C)c1c(C(=O)N[C@H]2CCOc3ccccc32)cnn2c(-c3cc(Cl)cc(Cl)c3)c(Cl)cc12 [Compound A477] | < 10 | < 10 | 10 to 100
CC(C)c1c(C(=S)N[C@H]2CCOc3ccccc32)cnn2c(-c3cc(F)cc(Cl)c3Cl)c(Cl)cc12 [Compound A539, 6-chloro-7-(2,3-dichloro-5-fluorophenyl)-N-[(4S)-3,4-dihydro-2H-1-benzopyran-4-yl]-4-(propan-2-yl)pyrrolo[1,2-b]pyridazine-3-carbothioamide] | 10 to 100 | 100 to 1000 | –
CC1(C)CN(c2c(C(=O)N[C@H]3CCOc4ccccc43)cnn3c(-c4cc(Cl)cc(Cl)c4Cl)c(Cl)cc23)C1 [Compound A515] | – | – | 1000 to 10000
Cc1cc2c(C(C)(C)C)c(C(=O)N[C@H]3CCOc4ccncc43)cnn2c1-c1cc(F)cc(Cl)c1Cl [Compound A569] | < 10 | – | –
CC1(F)CN(c2c(C(=O)N[C@H]3CCOc4ccccc43)cnn3c(-c4cc(F)cc(Cl)c4Cl)c(Cl)cc23)C1 [Compound A514] | 1000 to 10000 | – | –

Compound | EC50 [1] [nM] | EC50 [2] [nM] | EC50 [3] [nM]
Cc1cc2c(N3CC(C)(C)C3)c(C(=O)N[C@H]3CCOc4ccccc43)cnn2c1-c1cc(F)cc(Cl)c1Cl [Compound A512] | – | – | 1000 to 10000
CC(C)(C)c1c(C(=O)N[C@H]2CCc3ccccc32)cnn2c(-c3cc(Cl)cc(Cl)c3)c(Cl)cc12 [Compound A492] | 10 to 100 | – | 100 to 1000
Cc1cc2c(C(C)C)c(C(=O)NN3CCOc4ccccc43)cnn2c1-c1cc(Cl)cc(Cl)c1 [Compound A497] | 10 to 100 | – | 10 to 100
Cc1cc2c(N3CC(C)(C)C3)c(C(=O)N[C@H]3CCOc4ccccc43)cnn2c1-c1cc(F)cc(Cl)c1Cl [Compound A564] | 1000 to 10000 | 1000 to 10000 | –
Cc1cc2c(C(C)(C)C)c(C(=O)N[C@H]3CCc4ccccc43)cnn2c1-c1cc(Cl)cc(Cl)c1 [Compound A480] | 1000 to 10000 | 100 to 1000 | –
Cc1cc2c(N3CCOCC3)c(C(=O)N[C@H]3CCOc4ccccc43)cnn2c1-c1cc(F)cc(Cl)c1Cl [Compound A490] | < 10 | < 10 | –
CC(C)c1c(C(=O)N[C@H]2CCOc3ccccc32)cnn2c(-c3cc(Cl)cc(Cl)c3)cc(C(F)(F)F)c12 [Compound A468] | 1000 to 10000 | – | –
Cc1cc2c(C(C)(C)C)c(C(=O)N[C@@H]3CCc4sc(Br)nc43)cnn2c1-c1cc(F)cc(Cl)c1Cl [Compound A536b] | 1000 to 10000 | 1000 to 10000 | –
Cc1cc2c(C(C)(C)C)c(C(=O)N[C@H]3CCOc4ccccc43)cnn2c1-c1cc(Cl)cc(Cl)c1 [Compound A464] | < 10 | < 10 | –
Cc1cc2c(N3CCOCC3)c(C(=O)N[C@H]3CCOc4ccccc43)cnn2c1-c1cc(F)cc(F)c1F [Compound A491] | < 10 | < 10 | –
CC(C)c1c(C(=O)N[C@H]2CCOc3ccccc32)cnn2c(-c3cc(Cl)cc(Cl)c3)ccc12 [Compound A470] | 1000 to 10000 | – | –
Cc1cc2c(C(C)(C)C)c(C(=O)N[C@H]3CCOc4ccccc43)cnn2c1-c1cccc(Cl)c1Cl [Compound A519] | < 10 | < 10 | –
Cc1cc2c(C(C)(C)C)c(NC(=O)NC3CCCc4ncsc43)cnn2c1-c1cc(F)cc(Cl)c1Cl (centres unmarked) [Compound A535] | – | – | 1000 to 10000
Cc1cc2c(C(C)(C)C)c(C(=O)N[C@H]3CC(C)(C)Oc4ccccc43)cnn2c1-c1cc(F)cc(Cl)c1Cl [Compound A547] | 1000 to 10000 | 1000 to 10000 | –
Cc1cc2c(C(C)(C)C)c(C(=O)N[C@H]3CCn4cncc43)cnn2c1-c1cc(F)cc(Cl)c1Cl [Compound A552] | 1000 to 10000 | 1000 to 10000 | –
Cc1cc2c(C(C)C)c(C(=O)Nc3cccc4ccccc34)cnn2c1-c1cc(Cl)cc(Cl)c1 [Compound A521] | – | 100 to 1000 | –
Cc1cc2c(C(C)(C)C)c(C(=O)N[C@H]3CCOc4ccccc43)cnn2c1-c1cc(Cl)cc(Cl)c1Cl [Compound A472] | < 10 | – | < 10
Cc1cc2c(N3CC(C)(F)C3)c(C(=O)N[C@H]3CCOc4ccccc43)cnn2c1-c1cc(Cl)cc(Cl)c1Cl [Compound A508] | 1000 to 10000 | – | –
Cc1cc2c(C(C)(C)C)c(C(=O)N[C@H]3CCOc4ccccc43)cnn2c1N1CCOCC1 [Compound A529] | 1000 to 10000 | 100 to 1000 | –
CN(C)c1c(C(=O)N[C@H]2CCOc3ccccc32)cnn2c(-c3cc(Cl)cc(Cl)c3)c(Cl)cc12 [Compound A475] | 100 to 1000 | – | 10 to 100
Cc1cc2c(N3CC(C)(F)C3)c(C(=O)N[C@H]3CCOc4ccccc43)cnn2c1-c1cc(F)cc(Cl)c1Cl [Compound A562] | 1000 to 10000 | 1000 to 10000 | –
Cc1cc2c(C(C)(C)C)c(C(=O)NC3CCCc4sccc43)cnn2c1-c1cc(F)cc(Cl)c1Cl (centres unmarked) [Compound A537] | < 10 | 10 to 100 | –
Cc1cc2c(C(C)(C)C)c(C(=O)N[C@H]3COc4ccccc43)cnn2c1-c1cc(F)cc(Cl)c1Cl [Compound A545] | – | 1000 to 10000 | –
Cc1cc(-c2cc(Cl)cc(Cl)c2)n2ncc(C(=O)N[C@H]3CCOc4ccccc43)c(C(C)C)c12 [Compound A469] | 10 to 100 | 10 to 100 | –
CC1(F)CN(c2c(C(=O)N[C@H]3CCOc4ccccc43)cnn3c(-c4cc(Cl)cc(Cl)c4Cl)c(Cl)cc23)C1 [Compound A509] | 100 to 1000 | – | –
